Usually inhibition stands for the relative decrease from the control value, in per cent.

Holding throughout (parameters): purchased Milipore (Millipore)
Assay [1] deals with T1, Human adrenergic α2B receptor (Homo sapiens, UniProt P18089).
T1 sequence (P18089 1-450): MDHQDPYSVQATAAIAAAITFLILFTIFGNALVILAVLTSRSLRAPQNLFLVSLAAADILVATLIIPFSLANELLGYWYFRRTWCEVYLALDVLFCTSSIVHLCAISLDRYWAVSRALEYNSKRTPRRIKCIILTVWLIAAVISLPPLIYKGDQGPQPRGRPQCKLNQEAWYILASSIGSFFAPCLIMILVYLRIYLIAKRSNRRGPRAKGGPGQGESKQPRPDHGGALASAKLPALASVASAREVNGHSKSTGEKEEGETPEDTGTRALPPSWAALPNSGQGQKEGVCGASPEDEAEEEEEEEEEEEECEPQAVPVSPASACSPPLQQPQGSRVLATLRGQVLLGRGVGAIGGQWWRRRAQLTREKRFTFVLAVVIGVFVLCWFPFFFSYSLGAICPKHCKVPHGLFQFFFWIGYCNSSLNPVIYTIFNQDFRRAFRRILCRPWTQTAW
In words: Radioligand binding, adrenergic α2B (Protocol Group B). The note with it: Protocol Group B; for Percentage inhibition of ligand binding, Adrenergic α2B (30 nM) / inhibition at 0.03 µM: 30 nM compound; for Percentage inhibition of ligand binding, Adrenergic α2B (30 nM): 0.03 µM; for inhibition at 0.01 µM / Percentage inhibition of ligand binding, Adrenergic α2B (10 nM): 10 nM compound; for inhibition at 0.01 µM: read-out: Percentage inhibition of ligand binding, Adrenergic α2B (10 nM); for inhibition at 0.03 µM: read-out: Percentage inhibition of ligand binding, Adrenergic α2B (30 nM); for inhibition at 0.1 µM / Percentage inhibition of ligand binding, Adrenergic α2B (0.1 μM): 0.1 μM compound; for inhibition at 0.1 µM: read-out: Percentage inhibition of ligand binding, Adrenergic α2B (0.1 μM); for Percentage inhibition of ligand binding, Adrenergic α2B (10 nM): 0.01 µM. In a few lines:
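Recombinant human α2B receptor membranes incubated with compounds in 50 mM Tris-HCl pH 7.4, 5 mM MgCl2, 1 mM CaCl2, 0.2% BSA, 1% DMSO vehicle. Non-specific binding defined with 10 μM rauwolscine. Values are percent inhibition of specific binding or estimated Ki.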

Assay [2] concerns the target T2, Human adrenergic α2A receptor (Homo sapiens, UniProt P08913).
T2 sequence (P08913 1-465): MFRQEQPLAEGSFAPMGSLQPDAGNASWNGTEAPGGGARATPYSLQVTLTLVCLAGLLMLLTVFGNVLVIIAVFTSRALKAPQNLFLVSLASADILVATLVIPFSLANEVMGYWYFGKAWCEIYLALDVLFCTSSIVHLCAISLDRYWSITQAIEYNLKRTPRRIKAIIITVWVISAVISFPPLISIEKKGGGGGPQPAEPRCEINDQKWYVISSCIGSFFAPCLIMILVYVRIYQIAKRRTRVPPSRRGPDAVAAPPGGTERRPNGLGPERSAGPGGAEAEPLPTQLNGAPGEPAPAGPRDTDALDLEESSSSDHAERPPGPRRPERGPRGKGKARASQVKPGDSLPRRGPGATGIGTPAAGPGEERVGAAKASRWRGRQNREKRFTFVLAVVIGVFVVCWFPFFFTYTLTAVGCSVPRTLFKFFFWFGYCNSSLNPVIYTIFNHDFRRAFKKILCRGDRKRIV
In words: Radioligand binding, adrenergic α2A (Protocol Group B). The note with it: Protocol Group B; for Percentage inhibition of ligand binding, Adrenergic α2A (0.1 μM) / inhibition at 0.1 µM: 0.1 μM compound; for inhibition at 0.3 µM / Percentage inhibition of ligand binding, Adrenergic α2A (0.3 μM): 0.3 μM compound; for inhibition at 0.3 µM: read-out: Percentage inhibition of ligand binding, Adrenergic α2A (0.3 μM); for inhibition at 0.1 µM: read-out: Percentage inhibition of ligand binding, Adrenergic α2A (0.1 μM). A digest of the protocol:
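Membranes from recombinant cells expressing the receptor, in 50 mM Tris-HCl pH 7.4 with 5 mM MgCl2, 1 mM CaCl2, 0.2% BSA; compounds incubated with 2 nM [^3H]MK-912 for 60 min at 25° C. Nonspecific binding defined by 10 μM rauwolscine; filtration, counting; percent inhibition of specific binding, or estimated Ki.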

Assay [3] addresses T3, Human adrenergic α1B receptor (Homo sapiens, UniProt P35368).
T3 sequence (P35368 1-520): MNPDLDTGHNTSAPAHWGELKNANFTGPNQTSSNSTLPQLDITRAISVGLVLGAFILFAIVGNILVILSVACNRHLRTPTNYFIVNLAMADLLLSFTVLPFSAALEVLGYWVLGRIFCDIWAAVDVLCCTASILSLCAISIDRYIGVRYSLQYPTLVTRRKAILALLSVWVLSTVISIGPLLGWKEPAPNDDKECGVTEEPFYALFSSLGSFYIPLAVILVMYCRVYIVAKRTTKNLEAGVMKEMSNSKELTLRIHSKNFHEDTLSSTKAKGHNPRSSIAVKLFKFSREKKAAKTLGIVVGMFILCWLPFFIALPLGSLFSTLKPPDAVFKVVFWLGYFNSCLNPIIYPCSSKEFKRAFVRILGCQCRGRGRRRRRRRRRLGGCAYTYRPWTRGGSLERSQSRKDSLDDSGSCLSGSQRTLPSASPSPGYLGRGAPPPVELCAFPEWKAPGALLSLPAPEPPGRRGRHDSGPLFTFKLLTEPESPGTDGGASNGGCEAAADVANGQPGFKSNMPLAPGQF
Kind of assay: Radioligand binding, adrenergic α1B (Protocol Group B). The note with it: Protocol Group B; for Percentage inhibition of ligand binding, Adrenergic α1B (0.1 μM) / inhibition at 0.1 µM: 0.1 μM compound; for Percentage inhibition of ligand binding, Adrenergic α1B (0.3 μM) / inhibition at 0.3 µM: 0.3 μM compound; for inhibition at 0.3 µM: read-out: Percentage inhibition of ligand binding, Adrenergic α1B (0.3 μM); for inhibition at 0.1 µM: read-out: Percentage inhibition of ligand binding, Adrenergic α1B (0.1 μM). In a few lines: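 Recombinant human α1B membranes incubated with test compound and 0.3 nM [3H]prazosin, 60 min at 25 °C, in 50 mM Tris-HCl pH 7.4, 10 mM MgCl2, 1 mM EDTA; nonspecific binding with 10 μM prazosin. Filter-bound radioactivity counted; values are % inhibition of specific binding or estimated Ki.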

On to `OC(Cn1c2c(c3cc(Cl)ccc31)C1CCCN1CC2)c1ccncc1` (single isomer, unassigned) [143d], for which, in assay [1], the “Percentage inhibition of ligand binding, Adrenergic α2B (30 nM)” value (from here on “Percentage inhibition … (30 nM)”) amounted to 4%. For the same compound, the “Percentage inhibition of ligand binding, Adrenergic α2A (0.1 μM)” value in assay [2] was found to be 7%. For the same compound, the “Percentage inhibition of ligand binding, Adrenergic α1B (0.1 μM)” value in assay [3] worked out at 15%.
With `Cc1ccc2c(c1)c1c(n2CC(C)(O)c2ccncc2)CC2CCCN2C1` (single isomer, unassigned) [37a], in assay [1], the inhibition at 0.01 µM was 27%, the inhibition at 0.03 µM amounted to 50% and the inhibition at 0.1 µM came to 69%. Further, in assay [2], the “Percentage inhibition of ligand binding, Adrenergic α2A (0.1 μM)” value is on record as 14% and the inhibition at 0.3 µM amounted to 21%. In assay [3], the “Percentage inhibition of ligand binding, Adrenergic α1B (0.1 μM)” value was found to be 26% and the “Percentage inhibition of ligand binding, Adrenergic α1B (0.3 μM)” value worked out at 34%.
For the compound `Cc1ccc2c(c1)c1c(n2CC(C)(O)c2cccnc2)CC2CCC1N2C` (single isomer, unassigned) [101b], in assay [1], the “Percentage inhibition of ligand binding, Adrenergic α2B (10 nM)” value (from here on “Percentage inhibition … (10 nM)”) is recorded as 2%; the “Percentage inhibition … (30 nM)” value was found to be 3%; the “Percentage inhibition of ligand binding, Adrenergic α2B (0.1 μM)” value stood at 32%. In assay [2], the “Percentage inhibition of ligand binding, Adrenergic α2A (0.1 μM)” value was found to be 1% and the “Percentage inhibition of ligand binding, Adrenergic α2A (0.3 μM)” value is on record as 8%. In addition, in assay [3], the “Percentage inhibition of ligand binding, Adrenergic α1B (0.1 μM)” value is listed as −3% and the inhibition at 0.3 µM turned out to be 5%.
Regarding `CN1CCc2c(c3cc(CCO)ccc3n2CC(C)(O)c2cccnc2)C1` (single isomer, unassigned) [139b], the “Percentage inhibition … (30 nM)” value in assay [1] is 3%. Further, the “Percentage inhibition of ligand binding, Adrenergic α2A (0.1 μM)” value in assay [2] is recorded as 0%. Besides, the “Percentage inhibition of ligand binding, Adrenergic α1B (0.1 μM)” value in assay [3] turned out to be 1%.
Regarding `Cc1ccc2c(c1)c1c(n2CC(O)c2ccc(C(=O)NC3CC3)nc2)CCN(C)C1` (centres unmarked) [compound 55, N-cyclopropyl-5-(2-(2,8-dimethyl-3,4-dihydro-1H-pyrido[4,3-b]indol-5(2H)-yl)-1-hydroxyethyl)picolinamide], in assay [1], the inhibition at 0.01 µM is 6%, the inhibition at 0.03 µM came to 24% and the inhibition at 0.1 µM stood at 50%. In addition, in assay [2], the inhibition at 0.1 µM was -4% and the inhibition at 0.3 µM came out at 3%. Also, in assay [3], the inhibition at 0.1 µM turned out to be 19% and the inhibition at 0.3 µM came to 44%.
In the case of `Cc1cc(C)c2c(c1)c1c(n2CC(O)C2CCCCC2)CCN2CCCC12` (centres unmarked) [141b], the “Percentage inhibition … (30 nM)” value in assay [1] worked out at 92%. For the same compound, in assay [2], the “Percentage inhibition of ligand binding, Adrenergic α2A (0.1 μM)” value is given as 81%. Besides, the “Percentage inhibition of ligand binding, Adrenergic α1B (0.1 μM)” value in assay [3] was found to be 57%.
Turning to `Cc1cc(C)c2c(c1)c1c(n2CC(C)(O)c2ccncc2)CCN2CCCC12` (single isomer, unassigned) [19c], in assay [1], the “Percentage inhibition … (10 nM)” value was −13%; the “Percentage inhibition … (30 nM)” value is −12%; the “Percentage inhibition of ligand binding, Adrenergic α2B (0.1 μM)” value came out at 6%. For the same compound, in assay [2], the “Percentage inhibition of ligand binding, Adrenergic α2A (0.1 μM)” value is listed as −7% and the “Percentage inhibition of ligand binding, Adrenergic α2A (0.3 μM)” value was 1%. In assay [3], the “Percentage inhibition of ligand binding, Adrenergic α1B (0.1 μM)” value was −5% and the “Percentage inhibition of ligand binding, Adrenergic α1B (0.3 μM)” value is given as −1%.
Regarding `OC(Cn1c2c(c3cc(Cl)cc(F)c31)C1CCCN1CC2)c1ccncc1` (single isomer, unassigned) [135c], in assay [1], the “Percentage inhibition … (10 nM)” value came out at 4% and the inhibition at 0.03 µM was found to be 10%. Moreover, in assay [2], the “Percentage inhibition of ligand binding, Adrenergic α2A (0.1 μM)” value was 12% and the “Percentage inhibition of ligand binding, Adrenergic α2A (0.3 μM)” value turned out to be 18%. Besides, in assay [3], the “Percentage inhibition of ligand binding, Adrenergic α1B (0.1 μM)” value was found to be 1% and the inhibition at 0.3 µM worked out at 12%.
For the compound `Cc1ccc2c(c1)c1c(n2CC(O)c2cccnc2)C(F)(F)CN(C)C1` (centres unmarked) [compound 30, 2-(4,4-difluoro-2,8-dimethyl-3,4-dihydro-1H-pyrido[4,3-b]indol-5(2H)-yl)-1-(pyridin-3-yl)ethanol], in assay [1], the inhibition at 0.01 µM came to 13%, the inhibition at 0.03 µM is 8% and the inhibition at 0.1 µM is 12%. In assay [2], the inhibition at 0.1 µM is -18% and the inhibition at 0.3 µM is -5%. Further, in assay [3], the inhibition at 0.1 µM worked out at 0% and the inhibition at 0.3 µM was 17%.

The record behind these values is patent US20150315188A1, “COMPOUNDS AND METHODS FOR TREATMENT OF HYPERTENSION” (MEDIVATION TECHNOLOGIES, INC., priority 2012, published 2015).
